Values of other authors, collected in patent US20260183243A1, “PHARMACEUTICAL COMPOSITIONS OF NOR-UDCA” (SHILPA MEDICARE LIMITED, priority 2022, published 2026).

Settings: background statement, no test described

Compound: C[C@H](CC(=O)O)[C@H]1CC[C@H]2[C@@H]3[C@@H](O)C[C@@H]4C[C@H](O)CC[C@]4(C)[C@H]3CC[C@]12C [Nor-UDCA, 24-nor-ursodeoxycholic acid]
- solubility in an aqueous medium: poorly soluble
